{
  "source": "ChEMBL document CHEMBL3102830",
  "about": "“Involvement of apoptosis and autophagy in the death of RPMI 8226 multiple myeloma cells by two enantiomeric sigma receptor ligands” (Bioorg Med Chem, 2014)",
  "key": {"[1]": {"experiment": "Displacement of [3H]-DTG from sigma-2 receptor in rat liver homogenates in presence of (+)-pentazocine", "type": "tissue-based"}, "RPMI-8226 [2]": {"tested_on": "RPMI-8226", "experiment": "Induction of apoptosis in human RPMI8226 cells assessed as dead cells at 36 uM after 48 hrs by annexin V-FITC/propidium iodide staining-based flow cytometric analysis in presence of apoptosis inhibitor 2,2'-methylenebis(1,3-cyclohexandione) relative to control", "type": "functional"}, "RPMI-8226 [3]": {"tested_on": "RPMI-8226", "experiment": "Induction of apoptosis in human RPMI8226 cells assessed as dead cells at 36 uM after 48 hrs by annexin V-FITC/propidium iodide staining-based flow cytometric analysis relative to control", "type": "functional"}, "RPMI-8226 [4]": {"tested_on": "RPMI-8226", "experiment": "Induction of apoptosis in human RPMI8226 cells at 36 uM after 48 hrs by annexin V-FITC/propidium iodide staining-based flow cytometric analysis in presence of caspase inhibitor z-VAD-FMK", "type": "functional, cell-based"}, "RPMI-8226 [5]": {"tested_on": "RPMI-8226", "experiment": "Induction of apoptosis in human RPMI8226 cells assessed as decrease in Bid protein expression at 36 uM up to 96 hrs by Western blotting analysis", "type": "functional, cell-based"}, "RPMI-8226 [6]": {"tested_on": "RPMI-8226", "experiment": "Induction of apoptosis in human RPMI8226 cells assessed as increase in Bcl2 protein expression at 36 uM by Western blotting analysis", "type": "functional, cell-based", "conditions": "TDE = time-dependent effect"}, "RPMI-8226 [7]": {"tested_on": "RPMI-8226", "experiment": "Induction of apoptosis in human RPMI8226 cells assessed as decrease in Bax protein expression at 36 uM by Western blotting analysis", "type": "functional, cell-based", "conditions": "TDE = time-dependent effect"}, "RPMI-8226 [8]": {"tested_on": "RPMI-8226", "experiment": "Induction of apoptosis in human RPMI8226 cells assessed as caspase-9 protein expression at 36 uM after 6 to 96 hrs by Western blotting analysis", "type": "functional, cell-based"}, "RPMI-8226 [9]": {"tested_on": "RPMI-8226", "experiment": "Induction of apoptosis in human RPMI8226 cells assessed as PARP-1 cleavage at 36 uM after 6 hrs by Western blotting analysis", "type": "functional, cell-based"}, "RPMI-8226 [10]": {"tested_on": "RPMI-8226", "experiment": "Induction of apoptosis in human RPMI8226 cells assessed as caspase-8 cleavage at 36 uM after 6 to 96 hrs by Western blotting analysis", "type": "functional, cell-based"}, "RPMI-8226 [11]": {"tested_on": "RPMI-8226", "experiment": "Induction of apoptosis in human RPMI8226 cells assessed as caspase-9 activation at 36 uM by flow cytometric analysis in presence of […]", "type": "functional, cell-based", "conditions": "TDE = time-dependent effect"}, "RPMI-8226 [12]": {"tested_on": "RPMI-8226", "experiment": "Induction of apoptosis in human RPMI8226 cells assessed as caspase-8 activation at 36 uM by flow cytometric analysis in presence of FITC-IETD-FMK", "type": "functional, cell-based", "conditions": "TDE = time-dependent effect"}, "RPMI-8226 [13]": {"tested_on": "RPMI-8226", "experiment": "Induction of apoptosis in human RPMI8226 cells assessed as caspase-3 activation at 36 uM by flow cytometric analysis in presence of […]", "type": "functional, cell-based", "conditions": "TDE = time-dependent effect"}, "RPMI-8226 [14]": {"tested_on": "RPMI-8226", "experiment": "Induction of apoptosis in human RPMI8226 cells assessed as chromatin condensation at 36 uM after 24 to 48 hrs by DAPI staining-based fluorescence microscopic analysis", "type": "functional, cell-based"}, "RPMI-8226 [15]": {"tested_on": "RPMI-8226", "experiment": "Induction of apoptosis in human RPMI8226 cells assessed as increase in apoptotic cells at 36 uM after 24 to 48 hrs by annexin V-FITC/propidium iodide staining-based flow cytometric analysis", "type": "functional, cell-based"}, "RPMI-8226 [16]": {"tested_on": "RPMI-8226", "experiment": "Induction of apoptosis in human RPMI8226 cells at 36 uM after 6 hrs by annexin V-FITC/propidium iodide staining-based flow cytometric analysis", "type": "functional, cell-based"}, "HL-60": {"tested_on": "HL-60", "experiment": "Cytotoxicity against human HL60 cells assessed as cell viability at 20 uM after 72 hrs by MTT assay", "type": "functional, cell-based"}, "RPMI-8226 [17]": {"tested_on": "RPMI-8226", "experiment": "Cytotoxicity against human RPMI8226 cells assessed as cell viability after 72 hrs by MTT assay", "type": "functional, cell-based"}, "RPMI-8226 [18]": {"tested_on": "RPMI-8226", "experiment": "Selectivity ratio of Ki for sigma-2 receptor in human RT4 cell homogenates to Ki for sigma-1 receptor in human RPMI8226 cells", "type": "cell-based"}, "[19]": {"experiment": "Selectivity ratio of Ki for sigma-2 receptor in rat liver homogenates to Ki for sigma-1 receptor in guinea pig brain homogenates", "type": "tissue-based"}, "[20]": {"experiment": "Displacement of [3H]-DTG from sigma-2 receptor in human RT4 cell homogenates in presence of (+)-pentazocine", "type": "tissue-based", "conditions": "rt-4"}, "[21]": {"molecular_target": "Sigma non-opioid intracellular receptor 1 (Homo sapiens, UniProt Q99720)", "sequence (Q99720 whole entry)": "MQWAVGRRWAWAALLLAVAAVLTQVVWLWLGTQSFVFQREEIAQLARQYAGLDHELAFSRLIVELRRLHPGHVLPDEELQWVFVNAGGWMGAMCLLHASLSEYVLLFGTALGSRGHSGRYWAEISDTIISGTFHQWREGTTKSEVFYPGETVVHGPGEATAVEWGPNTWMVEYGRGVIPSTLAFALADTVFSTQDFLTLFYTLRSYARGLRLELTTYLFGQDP", "experiment": "Displacement of [3H]-(+)-pentazocine from sigma-1 receptor in human RPMI8226 cells", "type": "cell-based, RPMI-8226"}, "[22]": {"molecular_target": "Sigma non-opioid intracellular receptor 1 (Cavia porcellus, UniProt Q60492)", "sequence (Q60492 whole entry)": "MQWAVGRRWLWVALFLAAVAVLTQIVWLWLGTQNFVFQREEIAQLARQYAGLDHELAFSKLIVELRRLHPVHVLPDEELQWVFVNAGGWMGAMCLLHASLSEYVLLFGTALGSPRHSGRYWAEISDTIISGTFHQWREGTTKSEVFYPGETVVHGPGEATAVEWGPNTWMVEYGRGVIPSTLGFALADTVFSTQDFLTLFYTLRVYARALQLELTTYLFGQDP", "experiment": "Displacement of [3H]-(+)-pentazocine from sigma-1 receptor in guinea pig brain homogenates", "type": "tissue-based"}, "RPMI-8226 [23]": {"tested_on": "RPMI-8226", "experiment": "Induction of autophagy in human RPMI8226 cells assessed as […] at 36 uM by Western blotting analysis", "type": "functional, cell-based", "conditions": "TDE = time-dependent effect"}, "RPMI-8226 [24]": {"tested_on": "RPMI-8226", "experiment": "Induction of apoptosis in human RPMI8226 cells assessed as early apoptotic cells at 36 uM after 48 hrs by annexin V-FITC/propidium iodide staining-based flow cytometric analysis in presence of wortmannin", "type": "functional, cell-based"}, "RPMI-8226 [25]": {"tested_on": "RPMI-8226", "experiment": "Induction of apoptosis in human RPMI8226 cells assessed as early apoptotic cells at 36 uM after 48 hrs by annexin V-FITC/propidium iodide staining-based flow cytometric analysis", "type": "functional, cell-based"}, "RPMI-8226 [26]": {"tested_on": "RPMI-8226", "experiment": "Induction of autophagy in human RPMI8226 cells assessed as p62 protein expression at 36 uM after 6 to 96 hrs by Western blotting analysis", "type": "functional, cell-based"}, "RPMI-8226 [27]": {"tested_on": "RPMI-8226", "experiment": "Induction of apoptosis in human RPMI8226 cells assessed as early/late apoptotic cells at 36 uM after 48 hrs by annexin V/propidium iodide staining-based flow cytometric analysis in presence of alpha-tocopherol", "type": "functional, cell-based"}, "RPMI-8226 [28]": {"tested_on": "RPMI-8226", "experiment": "Induction of apoptosis in human RPMI8226 cells assessed as early apoptotic cells at 36 uM after 48 hrs by annexin V/propidium iodide staining-based flow cytometric analysis", "type": "functional, cell-based"}, "RPMI-8226 [29]": {"tested_on": "RPMI-8226", "experiment": "Induction of apoptosis in human RPMI8226 cells assessed as early apoptotic cells at 36 uM after 24 hrs by annexin V/propidium iodide staining-based flow cytometric analysis", "type": "functional, cell-based"}, "RPMI-8226 [30]": {"tested_on": "RPMI-8226", "experiment": "Induction of apoptosis in human RPMI8226 cells assessed as early apoptotic cells at 36 uM after 24 hrs by annexin V/propidium iodide staining-based flow cytometric analysis in presence of alpha-tocopherol", "type": "functional, cell-based"}, "[31]": {"experiment": "Binding affinity to sigma-2 receptor in rat liver homogenates", "type": "tissue-based"}},
  "note": "Calls of active or inactive are those of the source. The rule behind the calls is not given here.",
  "data": [
    {"molecule": "COc1ccc(CN2CCN(Cc3ccccc3)CC2)cc1", "values": [
      {"measurement": "Ki", "setting": "[1]", "result": 161, "unit": "nM"}
    ]},
    {"molecule": "OCC[C@H]1CN(CC2CCCCC2)CCN1Cc1ccc(-c2ccccc2)cc1", "values": [
      {"measurement": "Activity", "setting": "RPMI-8226 [2]", "result": 21, "unit": "%"},
      {"measurement": "Activity", "setting": "RPMI-8226 [3]", "result": 18, "unit": "%"},
      {"measurement": "Activity", "setting": "RPMI-8226 [4]", "result": "Active"},
      {"measurement": "Activity", "setting": "RPMI-8226 [5]", "result": "inactive"},
      {"measurement": "Activity", "setting": "RPMI-8226 [6]", "result": "tde"},
      {"measurement": "Activity", "setting": "RPMI-8226 [7]", "result": "tde"},
      {"measurement": "Activity", "setting": "RPMI-8226 [8]", "result": "inactive"},
      {"measurement": "Activity", "setting": "RPMI-8226 [9]", "result": "Active"},
      {"measurement": "Activity", "setting": "RPMI-8226 [10]", "result": "Active"},
      {"measurement": "Activity", "setting": "RPMI-8226 [11]", "result": "tde"},
      {"measurement": "Activity", "setting": "RPMI-8226 [12]", "result": "tde"},
      {"measurement": "Activity", "setting": "RPMI-8226 [13]", "result": "tde"},
      {"measurement": "Activity", "setting": "RPMI-8226 [14]", "result": "Active"},
      {"measurement": "Activity", "setting": "RPMI-8226 [15]", "result": "Active"},
      {"measurement": "Activity", "setting": "RPMI-8226 [16]", "result": "inactive"},
      {"measurement": "Activity", "setting": "HL-60", "result": "inactive"},
      {"measurement": "Activity", "setting": "RPMI-8226 [17]", "result": "Dose-dependent effect"},
      {"measurement": "IC50", "setting": "RPMI-8226 [17]; RPMI-8226, 72 h", "result": 21300, "unit": "nM"},
      {"measurement": "Ratio Ki", "setting": "RPMI-8226 [18]", "result": 1.3},
      {"measurement": "Ratio Ki", "setting": "[19]", "result": 20.8},
      {"measurement": "Ki", "setting": "[20]", "result": 43, "unit": "nM"},
      {"measurement": "Ki", "setting": "[1]", "result": 73, "unit": "nM"},
      {"measurement": "Ki", "setting": "[21]", "result": 34, "unit": "nM"},
      {"measurement": "Ki", "setting": "[22]", "result": 3.5, "unit": "nM"},
      {"measurement": "Activity", "setting": "RPMI-8226 [23]", "result": "tde"},
      {"measurement": "Activity", "setting": "RPMI-8226 [24]", "result": "Active"},
      {"measurement": "Activity", "setting": "RPMI-8226 [25]", "result": "Active"},
      {"measurement": "Activity", "setting": "RPMI-8226 [26]", "result": "inactive"},
      {"measurement": "Activity", "setting": "RPMI-8226 [27]", "result": "inactive"},
      {"measurement": "Activity", "setting": "RPMI-8226 [28]", "result": "inactive"},
      {"measurement": "Activity", "setting": "RPMI-8226 [29]", "result": "Active"},
      {"measurement": "Activity", "setting": "RPMI-8226 [30]", "result": "Active"}
    ]},
    {"molecule": "COc1ccc(CN2CCN(Cc3ccccc3)[C@@H](CO)C2)cc1", "values": [
      {"measurement": "Ratio Ki", "setting": "[19]", "result": 5.8},
      {"measurement": "Ki", "setting": "[31]", "result": 70, "unit": "nM"}
    ]}
  ]
}
